# In patent US20220133738A1, “GENOTYPE AND DOSE-DEPENDENT RESPONSE TO AN ASBTI IN PATIENTS WITH BILE SALT EXPORT PUMP DEFICIENCY” (MIRUM PHARMACEUTICALS, INC., priority 2019, published 2022):
# “And” between values parts separate entries of the source, which are not always exact repeats. Equal values may be shown once.
# What was measured:
# [1] = test system: children with Alagille syndrome (ALGS); experiment: ICONIC phase 2b randomized placebo-controlled drug-withdrawal study with long-term extension of maralixibat in Alagille syndrome; details: for ItchRO(Obs) Weekly Morning Average Score, Average Change from Baseline: week 48
# Method: Children aged 1-18 years with a diagnosis of ALGS and evidence of cholestasis were eligible to enroll in the ICONIC clinical study, see Tables 12-14. During a long-term extension, participants with sBA levels above the upper limit of normal and/or an ITCHRO(OBS) score >1.5 were eligible for the 400 μg/kg BID dose (all participants received the 400 μg/kg BID dose). Inclusion criteria for the ICONIC study included having cholestasis, which was defined as at least one of 1) sBA concentration (total sBA) >3× the upper limit of normal, 2) serum conjugated bilirubin concentration >1 mg/dL, 3) fat-soluble vitamin deficiency not otherwise explained, 4) serum gamma-glutamyl transferase concentration >3× the upper limit of normal, and 3) intractable pruritus explainable only by liver disease. Inclusion criteria also included having significant pruritus, which was defined as an average daily score of >2 on the ITCHRO(OBS) scale for 2 consecutive weeks (0=no pruritus; 4=most severe pruritus). Exclusion criteria included having surgically disrupted enterohepatic circulation, a liver transplant, decompensated cirrhosis, or having any liver disease other than ALGS.
# sBA responders were defined as those patients achieving ≥50% reduction from baseline in sBA at week 12 or 18. ITCHRO responders were defined as those patients achieving at least a 1-point reduction from Baseline in weekly morning ITCHRO(OBS) score at week 12 or 18.
# In the open label extension, the effect of higher doses was explored by increasing dosage to a maximum of 400 μg/kg BID in eligible participants.
# Efficacy assessments were based on changes from baseline in sBA concentration, weekly average ITCHRO(OBS) scores (0, none; 4, most severe), CSS score (0, none; 4 most severe), and Clinician Xanthoma Scale score (0, none; 4, disabling). […] During the long-term extension, efficacy assessments were conducted every 12 weeks.
# sBA were measured using a fully validated liquid chromatography-electrospray ionization-mass electrospray (LC-ESI-MS) method using stable-isotope dilution analysis to measure serum concentrations of principal bile acids (cholic, chenodeoxycholic, ursodeoxycholic, deoxycholic acid, lithocholic, and their corresponding glycine and taurine conjugates). […] Calibration standards of individual bile acids were in the range of 50-25,000 ng/mL and Quality Control samples were prepared at concentrations of 100, 500, 1000, 2500, and 20000 ng/mL. The intra- and inter-assay imprecision of the method for individual bile acids measured was within the accepted GLP quality assurance guidelines of <15% coefficient of variance for these QC samples. The lower limit of quantification of the assay was set at 100 ng/mL and the imprecision at this concentration was <20%. The limit of detection of the assay was 5 ng/mL. Total sBA is represented by the sum of the individual bile acid species measured.
# [2] = test system: children with progressive familial intrahepatic cholestasis (PFIC); experiment: INDIGO phase 2 open-label efficacy and safety study of maralixibat in children with PFIC; assay type: in vivo, human
# [3] = individual subjects, one line per Subject ID of Table 18
# [4] = individual subjects, one line per Subject ID of Table 19
# [5] = sBA Normalization (<8.5 μmol/L)
smiles,measurement,setting,value
CCCCC1(CCCC)CS(=O)(=O)c2ccc(N(C)C)cc2[C@@H](c2ccc(OCc3ccc(C[N+]45CCN(CC4)CC5)cc3)cc2)[C@H]1O [maralixibat],"sBA levels, reduction from baseline","[1]; at 191 weeks, long-term extension",about 57%
same,"ITCHRO(OBS) score, mean change from baseline","[1]; at 191 weeks, SE 0.2",−2.5
same,"CSS score, mean reduction","[1]; at 191 weeks, SE 0.4",2.4 points
same,ITCHRO(OBS) final score,[1]; at 193 weeks,about 0.33
same,"ITCHRO(OBS) score, mean reduction",[1]; at 193 weeks,over 2 points
same,"CSS scores, average decrease","[1]; by week 48, all participants",over 1.5 points
same,"Clinician Xanthoma Score, reduction from baseline","[1]; by week 191, SE 0.3",0.7 points
same,"ITCHRO(OBS) scores, average decrease relative to baseline",[1]; by week 193,over 1.5 points
same,PedsQL Multidimensional Fatigue Scale scores,[1]; core study and extension (p<0.01),Improvements
same,tolerability,"[1]; core study and extension, over three years",well tolerated
same,tolerability,"[1]; doses up, treatment duration up to 4 years",generally well tolerated
same,"sBA concentration, decrease","[1]; first 18 weeks, 400 μg/kg QD",31%
same,"ITCHRO(OBS) scores, mean change from baseline","[1]; first 18 weeks, 400 μg/kg QD, SE 0.2",−1.7
same,Change in ItchRO from Baseline to Week 48 (ITCHRO(OBS) weekly morning average score),[1]; [3],−0.12 and 0.49 and −0.45 and 1.29 and −3.86 and 0.00 and −2.57 and −0.86 (2×) and −0.71 (2×) and −0.00 (2×) and −0.29 and −0.67 and −0.14 and −0.03 and −3.29 (2×) and −3.43 and −2.50 and −2.71 (2×) and −3.50 and −2.29 and −0.17 and −0.43 and −0.83
same,"Serum Bile Acid, Change from Baseline to Week 48",[1]; [3],−56.4 μmol/L and −166.3 μmol/L and −281.4 μmol/L and 166.4 μmol/L and −121.1 μmol/L and 4.3 μmol/L (2×) and −251.0 μmol/L and 3.3 μmol/L and −27.3 μmol/L and −155.5 μmol/L and −240.2 μmol/L and 9.0 μmol/L and 143.1 μmol/L and −112.2 μmol/L and 16.4 μmol/L and −10.9 μmol/L and −16.9 μmol/L and 54.5 μmol/L and −620.4 μmol/L and −23.9 μmol/L and −377.3 μmol/L and −205.9 μmol/L and −270.4 μmol/L and 25.5 μmol/L and −203.6 μmol/L and −96.4 μmol/L and −33.9 μmol/L
same,"Serum Bile Acid, Week 48",[1]; [3],22.9 µmol/L and 131.8 µmol/L and 98.5 µmol/L and 578.1 µmol/L and 20.8 µmol/L and 333.0 µmol/L and 119.6 µmol/L and 117.7 µmol/L and 492.6 µmol/L and 427.9 µmol/L and 199.8 µmol/L and 29.2 µmol/L and 891.6 µmol/L and 163.4 µmol/L and 60.2 µmol/L and 12.0 µmol/L and 23.6 µmol/L and 126.1 µmol/L and 37.0 µmol/L and 7.0 µmol/L and 101.9 µmol/L and 293.3 µmol/L and 65.0 µmol/L and 110.9 µmol/L and 35.8 µmol/L and 208.0 µmol/L and 55.8 µmol/L and 15.6 µmol/L
same,"ItchRO(Obs) Weekly Morning Average Score, Change from Baseline to Week 48",[1]; [4],−0.12 and 0.49 and −0.45 and 1.29 and −3.86 and 0.00 and −2.57 and −0.86 (2×) and −0.71 (2×) and −0.00 (2×) and −0.29 and −0.67 and −0.14 and −0.03 and −3.29 (2×) and −3.43 and −2.50 and −2.71 (2×) and −3.50 and −2.29 and −0.17 and −0.43 and −0.83
same,"ItchRO(Obs) Weekly Morning Average Score, Week 48",[1]; [4],2.71 and 3.20 and 1.83 and 3.71 and 0.14 and 1.86 and 0.71 and 1.14 (2×) and 0.29 (2×) and 2.00 (2×) and 1.71 (2×) and 1.00 and 1.40 and 0.00 (7×) and 1.43 and 1.57 and 3.50 and 2.17
same,"sBA levels, least squares mean difference maralixibat vs placebo","[1]; randomized withdrawal (week 18-22), SE 48.0",−114.0
same,"ITCHRO(OBS), LS mean difference maralixibat vs placebo","[1]; randomized withdrawal, SE 0.3",−1.5
same,"ItchRO(Obs) Weekly Morning Average Score, Week 48 Average Score",[1]; [5],0.00
same,"participants meeting sBA Response Definition, Week 48 (N = 28), %",[1]; [5],(3.6%)
same,"ItchRO(Obs) Weekly Morning Average Score, Average Change from Baseline",[1]; [5],−3.50
same,"ItchRO(Obs) Weekly Morning Average Score, Week 48 Average Score",[1]; sBA ≥50% Reduction,1.07
same,"participants meeting sBA Response Definition, Week 48 (N = 28), %",[1]; sBA ≥50% Reduction,(46.4%)
same,"ItchRO(Obs) Weekly Morning Average Score, Average Change from Baseline",[1]; sBA ≥50% Reduction,−1.86
same,"ItchRO(Obs) Weekly Morning Average Score, Week 48 Average Score",[1]; sBA ≥60% Reduction,0.82
same,"participants meeting sBA Response Definition, Week 48 (N = 28), %",[1]; sBA ≥60% Reduction,(39.3%)
same,"ItchRO(Obs) Weekly Morning Average Score, Average Change from Baseline",[1]; sBA ≥60% Reduction,−2.12
same,"ItchRO(Obs) Weekly Morning Average Score, Week 48 Average Score",[1]; sBA ≥70% Reduction,0.62
same,"participants meeting sBA Response Definition, Week 48 (N = 28), %",[1]; sBA ≥70% Reduction,(28.6%)
same,"ItchRO(Obs) Weekly Morning Average Score, Average Change from Baseline",[1]; sBA ≥70% Reduction,−2.31
same,"ItchRO(Obs) Weekly Morning Average Score, Week 48 Average Score",[1]; sBA ≥80% Reduction,0.11
same,"participants meeting sBA Response Definition, Week 48 (N = 28), %",[1]; sBA ≥80% Reduction,(14.3%)
same,"ItchRO(Obs) Weekly Morning Average Score, Average Change from Baseline",[1]; sBA ≥80% Reduction,−2.79
same,"ItchRO(Obs) Weekly Morning Average Score, Week 48 Average Score",[1]; sBA ≥90% Reduction,0.00
same,"participants meeting sBA Response Definition, Week 48 (N = 28), %",[1]; sBA ≥90% Reduction,(3.6%)
same,"ItchRO(Obs) Weekly Morning Average Score, Average Change from Baseline",[1]; sBA ≥90% Reduction,−2.71
same,CSS final average score,"[1]; week 48, all participants",about 1.5
same,multi-parameter responders among mild PFIC 2 patients,[2]; 280 μg/kg QD,1 of 7
same,moderate PFIC 2 patients responsive only at the higher dose (high-dose responder),[2]; 280 μg/kg twice daily,1 of 12
same,responders among moderate PFIC 2 patients,[2]; 280 μg/kg/day by week 48,5 of 12
same,Multi-parameter Responders (%),[2]; Mild PFIC 2 (N = 7),(14.3%)
same,Multi-parameter Responders (%),[2]; Moderate PFIC 2 (N = 12),(50%)
same,Multi-parameter Responders (%),[2]; Truncating BSEP (N = 6),(0%)
same,multi-parameter response,[2]; all PFIC 1 patients and all patients harboring a truncating ABCB11 mutation,not multi-parameter responders
same,increase in C4 levels relative to baseline,"[2]; all low-dose responders (280 μg/kg/day), within 13 weeks of first administration",at least 2.5 fold
same,"serum ALT, AST, and bilirubin concentrations over time","[2]; all low-dose responders, within 2-6 months of first administration",normalized or only mildly elevated
same,height Z-score,"[2]; high dose responder, following treatment response on sBA",increase in height Z-score
same,7αC4:sBA ratio,"[2]; high-dose responder, upon administration of 560 μg/kg/day",1770 times baseline
same,cholestasis markers after dose increase,"[2]; low-dose responder losing response in long-term extension, raised to 280 μg/kg BID at 640-730 days","sBA concentration decreased, severity of pruritus decreased, serum 7αC4 concentration increased, and 7αC4:sBA ratio increased"
same,7αC4 concentrations at 48 weeks relative to baseline,"[2]; low-dose responders (range, 3-43)",14 × baseline
same,growth (height Z-score change from baseline),"[2]; low-dose responders, FIG. 4",improved growth relative to baseline
same,"7αC4:sBA ratio, mean change from baseline at week 48","[2]; non-responders (range, 0.43-12)",1.9 times baseline ratio
same,duration of maintained response,[2]; responders in the INDIGO study,for over a year and for up to or beyond 5 years
same,Response: reduction in BAs,"[2]; subject 080051-L, mild PFIC 2",>70%
same,response at the higher dose in prior non-responders,[2]; three non-truncating PFIC 2 patients without response at 280 μg/kg/day given 560 μg/kg/day,one (mentioned above) responded at the higher dose
same,"ALT, change from baseline to week 48, mean",[2]; week 48,−12 UI/L
same,"C4, change from baseline to week 48, mean",[2]; week 48,+6.0 ng/mL
same,"ItchRO(Obs) score, change from baseline to week 48, mean",[2]; week 48,−1.0
same,"Total bilirubin, change from baseline to week 48, mean",[2]; week 48,+0.8 mg/dL
same,"sBA, change from baseline to week 48, mean",[2]; week 48,-32 µmol/L
